One test concerns HCT-116. Kind of test: Inhibitory activity against HCT116 cells after 24 hr cell growth. Type of test: functional, cell-based. Conditions: Homo sapiens, HCT-116, 24 h.
The next test concerns MCF7S. Kind of test: Inhibitory activity against MCF-7 cells after 72 hr cell growth. Type of test: functional, cell-based. Particulars: Homo sapiens.
The test system of the next test is NCI/ADR-RES. Put plainly: Inhibitory activity against MCF7-ADR cells after 72 hr cell growth. In kind it is functional, cell-based. Conditions: Homo sapiens.
In a further test the target is Tubulin. Kind of test: Concentration required to reduce the amount of pelleted tubulin. In kind it is protein-complex assay.
For a further test, the system named is KB. Put plainly: Cytotoxicity against KB cells. In kind it is functional, cell-based. Particulars: Homo sapiens.

pIC50: −log10 of the molar value. ≈ marks a conversion by molar mass, not a printed value.

Regarding `COc1ccc(C[C@H]2NC(=O)/C=C/C[C@@H]([C@H](C)[C@H]3O[C@@H]3c3ccccc3)OC(=O)[C@H](CC(C)C)OC(=O)[C@H](C)CNC2=O)cc1Cl` [CRYPTOPHYCIN A], the pIC50 in the test on HCT-116 was 10.57; in the test on MCF7S it was 11.52; with NCI/ADR-RES it was 10.89; against Tubulin it was 5.43.

Turning to `COc1ccc(C[C@H]2NC(=O)/C=C/C[C@@H]([C@H](C)[C@@H]3O[C@@H]3c3ccc(C(=O)c4ccccc4)cc3)OC(=O)[C@H](CC(C)C)OC(=O)CCNC2=O)cc1`, the pIC50 in the test with HCT-116 was 6.60; in the test on MCF7S, 8.22; in the test with NCI/ADR-RES, 6.35; at Tubulin, less than 4.00.

On to `COc1ccc(C[C@H]2NC(=O)/C=C/C[C@@H]([C@H](C)[C@H]3O[C@@H]3c3ccc(C(=O)c4ccccc4)cc3)OC(=O)[C@H](CC(C)C)OC(=O)CCNC2=O)cc1`, for which the pIC50 was 8.96 with HCT-116, 10.11 with MCF7S, 7.15 in the test with NCI/ADR-RES and 5.13 against Tubulin.

Regarding `COc1ccc(C[C@H]2NC(=O)/C=C/C[C@@H]([C@H](C)[C@H]3O[C@@H]3c3ccccc3)OC(=O)[C@H](CC(C)C)OC(=O)CCNC2=O)cc1` [ARENASTATIN A], the pIC50 was 9.55 in the test on HCT-116, 9.89 in the test with MCF7S, 9.79 in the test on NCI/ADR-RES and 4.82 against Tubulin. The molecule also had an IC50 in the test with KB of 0.005 ng/mL (≈ 0.00824 nM).

The term pIC50 denotes −log10 of the IC50, conventionally taken in molar units. Read a high pIC50 as a low IC50. Usually IC50 stands for the midpoint of a concentration-inhibition curve. A low value points to greater potency.

Source of the values: ChEMBL document CHEMBL1136604, “Cryptophycin affinity labels: synthesis and biological activity of a benzophenone analogue of cryptophycin-24” (Bioorg Med Chem Lett, 2003).
